Data published in publication PMC6254286, “Quantitative Structure − Antiprotozoal Activity Relationships of Sesquiterpene Lactones ^†” (Molecules, 2009).
pIC50: −log10 of the molar value. Like-named read-outs stand apart in the source and are kept apart here.

Tests used:
[1] = test system: Trypanosoma brucei rhodesiense STIB 900; experiment: In vitro activity against T. brucei rhodesiense bloodstream forms (Alamar blue); type: cell-based; settings: mean of two independent measurements
Method: (§1) Trypanosoma brucei rhodesiense and cytotoxicity against L6 cells. Minimum Essential Medium with Earle’s salts (50 µL) supplemented with 0.2 mM 2-mercapto-ethanol, 1 mM Na-pyruvate and 15% heat-inactivated horse serum was added to each well of a 96-well microtiter plate. […] Then 10^4 bloodstream forms of Trypanosoma brucei rhodesiense STIB 900 in 50 µL of medium were added to each well and the plate incubated at 37°C under a 5% CO2 atmosphere for 72 hours. […] The plate was then read in a Spectramax Gemini XS microplate fluorometer (Molecular Devices Corporation, Sunnyvale, CA, USA) using an excitation wavelength of 536 nm and emission wavelength of 588 nm. Fluorescence development was measured and expressed as percentage of the control. Data were transferred into the graphic programme Softmax Pro (Molecular Devices) which calculated IC50 values. Cytotoxicity was assessed using a similar protocol and rat skeletal myoblasts (L6 cells). […] All following steps were according to the T. b. rhodesiense protocol.

[2] = test system: T. cruzi Tulahuen strain C2C4; experiment: In vitro activity against T. cruzi in L-6 host cells (beta-galactosidase/CPRG); type: cell-based, Trypanosoma cruzi; settings: Trypanosoma cruzi, read-out: IC50 T. cruzi (Tcr)
Method: Trypanosoma cruzi. Rat skeletal myoblasts (L-6 cells) were seeded in 96-well microtiter plates at 2,000 cells/well in 100 µL RPMI 1640 medium with 10% FBS (fetal bovine serum) and 2 mM L-glutamine. After 24 hours the medium was removed and replaced by 100 µL per well containing 5,000 trypomastigote forms of T. cruzi Tulahuen strain C2C4 containing the β-galactosidase (Lac Z) gene. Fortyeight hours later the medium was removed from the wells and replaced by […] fresh medium with or without a serial drug dilution. Seven 3-fold dilutions were used covering a range from […]. Each drug was tested in duplicate. After 96 hours of incubation the plates were inspected under an inverted microscope to assure growth of the controls and sterility. Then the substrate CPRG/ Nonidet (50 µL) was added to all wells. A colour reaction developed within 2-6 hours and could be read photometrically at 540 nm.

[3] = test system: K1 strain of P. falciparum; experiment: Antiplasmodial [3H]-hypoxanthine incorporation assay; type: cell-based, Plasmodium falciparum; settings: Plasmodium falciparum
Method: Plasmodium falciparum. Antiplasmodial activity was determined using the K1 strain of P. falciparum (resistant to chloroquine and pyrimethamine). A modification of the [3H]-hypoxanthine incorporation assay was used. Briefly, infected human red blood cells (final parasitaemia and haematocrit were 0.3% and 1.25%, respectively) in RPMI 1640 medium with 5% Albumax were exposed to serial drug dilutions in microtiter plates. After 48 hours of incubation at 37°C in a reduced oxygen atmosphere, 0.5 mCi 3H-hypoxanthine was added to each well. Cultures were incubated for a further 24 h before they were harvested onto glass-fiber filters and washed with distilled water. The radioactivity was counted using a BetaplateTM liquid scintillation counter (Wallac, Zurich, Switzerland). […] From the sigmoidal inhibition curves IC50 values were calculated. Assays were run in duplicate and repeated once.

[4] = Cytotoxicity against L6 cells (Alamar blue); settings: rat; for pIC50: IC50 Cytotoxicity (L6), L6 rat skeletal myoblasts, 72 h, mean of two independent measurements
Method: as §1

[5] = test system: Leishmania donovani amastigotes (strain MHOM/ET/67/L82); experiment: L. donovani axenic amastigote assay (resazurin); type: cell-based; settings: Leishmania donovani
Method: Leishmania donovani (axenic amastigote assay). […] Serial drug dilutions in duplicates were prepared covering a range from 30 to 0.041 µg/mL. […] The compounds used as positive controls in the various bioassays (see Table 1) were of commercial origin, with the exception of melarsoprol, which was a gift from WHO. Their purity (generally > 95%) was specified by the manufacturers.

[6] = Trypanosoma brucei, 72 h, bloodstream forms STIB 900, 72 h, read-out: IC50 T. brucei rhodes. (Tbr)
[7] = TULAHUEN, L6, 96 h, Tulahuen C2C4 in L-6 cells, 96 h, mean of two independent measurements
[8] = K1, K1 strain (resistant to chloroquine and pyrimethamine), mean of two independent measurements, read-out: IC50 P. falciparum (Pfc)
[9] = L6 cells (rat skeletal myoblasts)
[10] = 72 h, pH 5.4, axenic amastigotes, pH 5.4, 72 h, mean of two independent measurements, read-out: IC50 L. donovani (Ldon)
[11] = L6, Tulahuen C2C4 in L-6 cells, 96 h, mean of two independent measurements
[12] = K1, read-out: IC50 P. falciparum (Pfc)
[13] = axenic amastigotes, pH 5.4, 72 h, mean of two independent measurements, read-out: IC50 L. donovani (Ldon)
[14] = Trypanosoma brucei, 72 h, read-out: IC50 T. brucei rhodes. (Tbr), bloodstream forms STIB 900, 72 h

| Structure (SMILES) | pIC50 [1, 6] | pIC50 [2, 7] | pIC50 [3, 8] | IC50 at 72 h [4, 9] | pIC50 [5, 10] | pIC50 [4] | further results |
| --- | --- | --- | --- | --- | --- | --- | --- |
| C=C1C(=O)O[C@H]2[C@H]1CC/C(C)=C/CC[C@@]1(C)O[C@@H]21 [Compound 34, parthenolide] | 6.41 | 4.97 | 4.92 | 7.24 µM | 5.45 | – | – |
| C=C1C(=O)OC2C1CCC1(C)C(O)CCC(=C)C21 (stereo not shown) [Compound 31] | – | 4.54 | 4.92 | – | 5.22 | 4.48 | pIC50 ([1]; bloodstream forms STIB 900, 72 h, read-out: IC50 T. brucei rhodes. (Tbr)): 4.75 |
| C=C1C(=O)OC2CC(C)C3C=CC(=O)C3(C)C(OC(=O)CC(C)C)C12 (stereo not shown) [Compound 4] | 6.94 | – | – | – | – | 5.89 | pIC50 [2, 11]: 5.61; pIC50 [3, 12]: 6.09; pIC50 [5, 13]: 6.06 |
| C=C1C(=O)OC2CC(C)C3C=CC(=O)C3(C)C(OC(=O)C(C)C)C12 (stereo not shown) [Compound 3] | 6.98 | – | – | – | – | 5.99 | pIC50 [2, 11]: 5.80; pIC50 [3, 12]: 6.15; pIC50 [5, 13]: 6.08 |
| CC1CC2OC(=O)C(C)C2C(O)C2(C)C(=O)C=CC12 (stereo not shown) [Compound 5] | 6.16 | – | – | – | – | 5.05 | pIC50 [2, 11]: 4.67; pIC50 [3, 12]: 5.52; pIC50 [5, 13]: 5.41 |
| C=C1C(=O)OC2CC(C)C3C(OC(C)=O)CC(O)C3(C)CC12 (stereo not shown) [Compound 10] | 5.17 | 4.69 | 5.19 | – | 4.91 | 5.36 | – |
| C=C1C(=O)OC2CC(C)C3C(OC(C)=O)CC(OC(C)=O)C3(C)CC12 (stereo not shown) [Compound 14] | 5.93 | 4.83 | 5.05 | 8.43 µM | 5.37 | – | – |
| C=C1C(=O)OC2CC3(C)CC(=O)CC(C)C3=CC12 (stereo not shown) [Compound 30] | 5.80 | 4.76 | 4.97 | 10.2 µM | 5.06 | – | – |
| C=C1C(=O)OC2CC(C)C3C=CC(=O)C3(C)C(O)C12 (stereo not shown) [Compound 8] | – | – | – | – | – | – | pIC50 [1, 14]: 6.50; pIC50 ([2]; TULAHUEN, L6, 96 h): 5.73; IC50 at 72 h [4]: 2.44 µM; pIC50 ([5]; 72 h, pH 5.4, read-out: IC50 L. donovani (Ldon)): < 5.40 |
| Nc1nc(N)nc(Nc2ccc([As]3SCC(CO)S3)cc2)n1 (stereo not shown) [melarsoprol, reference compound] | – | – | – | – | – | – | pIC50 [1, 14]: 8.10 |
| CCCCCCCCCCCCCCCCOP(=O)([O-])OCC[N+](C)(C)C [miltefosine, reference compound] | – | – | – | – | 6.57 | – | – |
| C=C1CC(O)CC2(C)CC3OC(=O)C(C)C3CC12 (stereo not shown) [Compound 28] | 3.47 | < 3.92 | < 4.70 | 187 µM | < 3.92 | – | – |
| C=C1C(=O)OC2CC(C)C3C(OC(C)=O)CC(O)C3(C)C(OC(C)=O)C12 (stereo not shown) [Compound 15] | 5.40 | 4.79 | 5.22 | – | 5.06 | 5.14 | – |
| O=C(Cn1ccnc1[N+](=O)[O-])NCc1ccccc1 [benznidazole, reference compound] | – | 5.70 | – | – | – | – | – |
| C=C1C(=O)OC2C=C(C)C(O)CC3OC3(COC(C)=O)CC(OC(=O)C(C)=CC)C12 (stereo not shown) [Compound 40] | 6.16 | 4.93 | 5.18 | – | 4.77 | 5.18 | – |
| C=C1C(=O)OC2CC(C)C3C(OC(C)=O)CC(O)C3(C)C(O)C12 (stereo not shown) [Compound 9] | 5.03 | 4.34 | – | – | – | 4.91 | – |
| C=C1C(=O)OC2CC(C)C3(O)C=C(C(C)=O)C4(CC3CC12)C(=O)OC1CC(C)C2(C=CC(C)=O)OC2CC14 (stereo not shown) [Compound 22] | 5.89 | 4.02 | 5.19 | 13.3 µM | 4.57 | – | – |
| C=C(C(=O)OC1CC(C)=CCCC(CO)=CC2OC(=O)C(=C)C21)C(O)CO (stereo not shown) [Compound 33] | 5.89 | 4.77 | 5.20 | 10.2 µM | 4.82 | – | – |
| C=C1C(=O)OC2CC(C)C3C(O)CC(O)C3(C)C(OC(=O)C(C)=CC)C12 (stereo not shown) [Compound 13] | 4.72 | – | – | – | – | 4.50 | pIC50 [2, 11]: 4.22; pIC50 [3, 12]: 4.56; pIC50 [5, 13]: 4.84 |
| C=C1C(=O)OC2CC(C)C3C(OC(C)=O)CC(O)C3(COC(C)=O)CC12 (stereo not shown) [Compound 16] | 4.87 | 4.35 | 4.97 | 21.6 µM | 4.93 | – | – |
| C=C1C(=O)O[C@@H]2C[C@@H](C)[C@@H]3C=CC(=O)[C@@]3(C)[C@@H](O)[C@H]12 [Compound 1, helenalin] | – | – | – | – | – | – | pIC50 [1, 14]: > 7.00; pIC50 ([1]; read-out: IC50 T. brucei rhodes. (Tbr), bloodstream forms STIB 900, 72 h): 7.28; pIC50 ([1]; read-out: IC50 T. brucei rhodes. (Tbr), bloodstream forms STIB 900, 72 h, listed as helenalin): 7.00 to 7.30; pIC50 ([2]; TULAHUEN, L6, 96 h): 6.16; IC50 at 72 h [4]: 0.992 µM |
| C=C1C(=O)OC2CC(C)C3C(O)CC(OC(=O)C(C)=CC)C3(C)C(O)C12 (stereo not shown) [Compound 12] | 4.96 | 4.31 | 4.97 | – | 4.75 | 4.78 | – |
| C=C1C(=O)OC2C=C(C)C(O)CC3OC3(C)CC(OC(=O)C(C)=CC)C12 (stereo not shown) [Compound 38] | 6.03 | 4.78 | 5.05 | 13 µM | 4.74 | – | – |
| COc1cc([C@@H]2c3cc4c(cc3[C@H](O)[C@H]3COC(=O)[C@H]23)OCO4)cc(OC)c1OC [podophyllotoxin, reference compound] | – | – | – | – | – | – | IC50 at 72 h [4]: 0.012 µM |
| CCN(CC)CCCC(C)Nc1ccnc2cc(Cl)ccc12 (stereo not shown) [chloroquine, reference compound] | – | – | – | – | – | – | pIC50 [3, 12]: 6.61 |
| CC(=O)OC1C2C(CC(C)C3C=CC(=O)C31C)OC(=O)C2C (stereo not shown) [Compound 6] | 5.85 | 5.16 | – | 3.06 µM | < 5.40 | – | – |
